Laboratory results as given in US20230046904A1, “COMBINATION OF SMALL MOLECULE INHIBITOR OF THE PD-1/PD-L1 INTERACTION AND ANTI-PD-1 ANTIBODY FOR TREATING CANCER” (GUANGZHOU MAXINOVEL PHARMACEUTICALS CO., LTD., priority 2019, published 2023).

What was measured:
[1] = system: 4T1 tumor cells; assay: Anti-tumor efficacy of Compound 1 and Opdivo in the 4T1 humanized mouse model; assay type: in vivo; conditions: for TGI at day 13: p<0.0001
Procedure: (§1) 4T1 tumor cells (ATCC, CRL-2539™) are maintained in vitro as a monolayer culture in RPMI 1640 medium supplemented with 10% heat inactivated fetal bovine serum at 37° C. in an atmosphere of 5% CO2 in air. The tumor cells are routinely subcultured three times weekly by trypsin-EDTA treatment. Each mouse is inoculated subcutaneously at the fourth mammary pad with 1×10^5 in 0.05 mL base medium for tumor development.
(§2) Compound 1 plus Opdivo (nivolumab): 40 BALB/c mice are inoculated subcutaneously at the fourth mammary pad with 4T1 cells for tumor development. On the six days of post inoculation, the mice are assigned into 4 groups using stratified randomization with 10 mice in each group based upon their tumor volume. The treatments are started from the day of randomization, and the groups receive the following treatments:
Group 1: Vehicle control; Group 2: Opdivio, 10 mg/kg, i.p., BIW; Group 3: Compound 1, 60 mg/kg, p.o., BID and Group 4: Compound 1, 60 mg/kg, p.o., BID+Opdivio, 10 mg/kg, i.p., BIW respectively.
(§3) The tumor sizes are measured three times per week during the treatment.
The tumor growth inhibition effect of the combination of Compound 1 and Opdivo is examined. The tumor inhibition rate is calculated as:
TGI (%)=(1−(the volume of the tumor on the day of administration−the volume of the tumor on the first day of administration (treatment group))/(the volume of the tumor on the day of administration−the volume of the tumor on the first day (vehicle group)))×100%.

[2] = system: B16F10 tumor cells (melanoma); assay: Anti-tumor efficacy in the B16F10 model in C57BL/6 mice; assay type: in vivo; conditions: PO, BID
Procedure: Materials required for the experiment: Antibody: mouse PD-1 antibody, Product specifications: 7.09 mg/mL (50 mg/mL), Lot No.: 695318A1 purchased from BioXcell, storage at 4° C. Experimental animals 60 C57BL/6 mice, female, 6-8 weeks old, 17-21 g, purchased from Shanghai Lingchang Biotechnology Co. Ltd. Formulation materials: castor oil (Cremophor RH40), CAS No.: 61788-85-0, Lot No.: 29761847G0, purchased from Shanghai Xietai Chemical Co. Ltd.; β-cyclodextrin (SBE-β-CD), CAS No.: 128446-35-5, Lot No.: 20180110, purchased from Shanghai Shaoyuan Chemical Co. Ltd.; DMEM culture medium, Art. No.: 11995-065, Lot No.: 2025378, purchased from Gibco Co. Ltd.; PBS, Art. […]
Cell preparation and implantation: The B16-F10 tumor cells (ATCC CRL-6475™) are maintained in vitro as a monolayer culture in DMEM medium supplemented with 10% heat inactivated fetal bovine serum at 37° C. in an atmosphere of 5% CO2 in air. […] The cells growing to a confluency around 70%-80% are harvested and counted for tumor inoculation. […]
Procedure: The mice in the vehicle group are weighed and recorded in the electronic balance according to their numbers. […]
The mice in the antibody (10 mg/kg) group are weighed and recorded in the electronic balance according to their numbers. […]
The mice in the compound (30 mg/kg) group are weighed and recorded in the electronic balance according to their numbers. […]

[3] = system: 4T1 tumor cells; assay: Anti-tumor efficacy of Compound 1 and Keytruda in the 4T1 humanized mouse model; assay type: in vivo
Procedure: as §1
as §2, with “1 plus Keytruda (pembrolizumab): 40 BALB/c” for “1 plus Opdivo (nivolumab): 40 BALB/c”, “the mice were assigned into” for “the mice are assigned into”, “The treatments were started from” for “The treatments are started from”
Group 1: Vehicle control; Group 2: Keytruda, 10 mg/kg, i.p., BIW; Group 3: Compound 1, 60 mg/kg, p.o., BID, and Group 4: Compound 1, 60 mg/kg, p.o., BID+Keytruda, 10 mg/kg, i.p., BIW respectively.
as §3
The tumor growth inhibition effect of the combination of Compound 1 and Keytruda is examined. The tumor inhibition rate is calculated as:
TGI (%)=(1−(the volume of the tumor on the day of administration−the volume of the tumor on the first day of administration (treatment group))/(the volume of the tumor on the day of administration−the volume of the tumor on the first day (vehicle group))×100%.

[4] = system: PD-L1 suppressed human T cells; assay: Activation of T-Cell Suppressed by PD-L1 (co-culture with PD-L1 transfected Hep3B cells, IFN-γ readout); assay type: cell-based; conditions: dose-dependent; Keytruda as positive control
From the text: To measure the cellular activity of the compound, a protocol of Activation of T-Cell Suppressed by PD-L1 is used. In this protocol, human Hep3B cells are stably transfected with human PD-L1. The human T cells containing PD-1 are inactivated by co-culturing with these PD-L1 transfected cells. Then anti-PD-1 antibody Keytruda® (pembrolizumab) is selected as the reference to profile the compound for its activation of PD-L1 suppressed human T-cells. […] Keytruda is used as a positive control.

## Cc1c(/C=C/c2cc(CN[C@@](C)(CO)C(=O)O)ccc2C(F)(F)F)cccc1-c1ccccc1 [Compound 1]
[1]; 60 mg/kg, PO, BID
  TGI at day 13: 21.70%
[2]; C57BL/6 mice
  growth of subcutaneous transplanted melanoma cell line in mice: significantly inhibits the growth
[2]; up to 120 mg/kg
  tolerability in C57BL/6 mice: well tolerated in C57BL/6 mice without obvious adverse reactions
[3]; 60 mg/kg, PO, BID, p<0.0001
  TGI at day 10: 22.36%
[4]
  activation of PD-L1 suppressed human T cells, indicated by increase of cytokine IFN-γ: effectively restores the activation of the PD-L1 suppressed human T cells

## nivolumab [Opdivo]
[1]; 10 mg/kg, IP, BIW
  TGI at day 13: 21.88%
[1]; after the 5th dose of Opdivo at day 14, 10 mg/kg i.p. BIW, mice
  time after dosing within which mice are found dead: ≤ 1 h

## pembrolizumab [Keytruda]
[3]; 10 mg/kg, IP, BIW, p>0.5
  TGI at day 10: 9.12%
[3]; after the 4th dose of Keytruda at day 10, 10 mg/kg i.p. BIW, mice
  time after dosing within which mice are found dead: ≤ 1 h
